“Also recorded” adds a separate entry of the source. Square brackets hold non-standard residues; d marks the D form. Primed or numbered codes have the meaning given here. Ends that are not written are not given here. Stearyl = stearyl group covalently linked to the N-terminus; PEG4′ = four-unit PEG spacer; PEG2′ = two-unit PEG spacer; PEG7′ = (PEG)7 moiety; Ahx = NCCCCCC(=O)O; Ava = NCCCCC(=O)O; βAla = NCCC(=O)O
Columns and labels:
293T cells = test: Cellular delivery of Luciferase mRNA, luciferase expression at 72 hrs; assay type: cell-based; conditions: 0.25 μg Luc mRNA; for reduction of efficiency / luciferase expression by modification or linker vs unmodified ADGN peptide: absence of serum or heparan sulfate; for luciferase expression: absence of serum or heparan sulfate treatment; for reduction of efficiency / luciferase expression after serum treatment: complexes incubated 3 hrs in 25% serum prior transfection
Procedure: FIGS. 1A-1C show luciferase expression in 293T cells treated with ADGN-peptide/mRNA complexes. 293T cells cultured in 48 well plates were transfected with ADGN-peptide nanoparticles. ADGN-100, ADGN-106, ADGN-100RI, ADGN-106RI, ADGN-100 Stearyl, ADGN-Hydro1, ADGN-Hydro2, ADGN-Hydro3, ADGN-Hydro4, ADGN-Hydro5, ADGN-Hydro6 and ADGN-peptide/ADGN-100PEG 10% nanoparticles containing 0.25 μg mRNA were formed in sterile water, diluted in sterile water containing 5% Sucrose and filtered with 0.45 μm PES filters. ADGN/mRNA complexes were incubated for 3 hrs in the presence of either 25% serum or heparan sulfate prior transfection. Luciferase expression was monitored 72 hours post transfection and results were reported as RLU (luminescence):mg of protein.
Complex formation with mRNA. The following protocols were used for the transfection of 2-5 106 Cells or Cells at confluency of about 70-80% cultured in 24 well plates. ADGN peptide/mRNA particles were prepared at a 20:1 molar ratio of ADGN-Peptide/mRNA. using (0.25 μg) mRNA. Luc mRNA (0.25 μg) was diluted in 20 μl of sterile water (GIBCO) at room temperature. 5 μl Final Peptide Solution was added to obtain a total volume of 20 μl. The volume was adjusted to 50 μl with sterile water and was mixed gently with vortex 1 min low speed and incubated 30 min at room temperature. Then the volume was made up to 100 μl by adding sterile water containing 5% sucrose, and the solution was mixed gently with vortex 1 min low speed and incubate 5 min at 37° C. and then was proceeded to cell transfection.
Transfection protocol. Protocol is reported for 24 well plate format. Cells were cultured in Dulbecco's Modified Eagle's Medium (DMEM), supplemented with 2 mM glutamine, 1% antibiotics (streptomycin 10,000 μg/mL, penicillin, 10,000 IU/mL) and 10% (w/v) foetal calf serum (FCS), at 37° C. in a humidified atmosphere containing 5% CO2. 24 well plates seeded with 150,000 cells the day prior to transfection were grown to 50-60% confluence and set up to be at about 70% confluences at the time of transfection. Before transfection, cells were washed twice with DMEM. Cells were then overlaid with 0.1 ml of ADGN-peptide/cargo complex solution containing 0.25 μg mRNA, 0.15 μg plasmid DNA or 10-25 nM siRNA, mixed gently, and incubated for 10 min at 37° C. 0.2 mL of fresh DMEM, were added and cells were incubated for 20 min at 37° C. 1 mL of complete DMEM containing 15% FCS were then added in order to reach a final FCS concentration of 10%, without removing the overlay of ADGN-peptide/cargo complexes. Cells were returned to the incubator (37° C., 5% CO2) and 72 hrs post transfection.
ADGN-peptides were evaluated for cellular delivery of Luciferase mRNA in 293T cells. A single dose of mRNA of 0.25 μg was evaluated. Luc mRNA (0.25 μg) in sterile water (GIBCO) were mixed with ADGN-100, ADGN-100RI, ADGN-106, ADGN-106RI, ADGN-100 Stearyl, ADGN-Hydro1, ADGN-Hydro2, ADGN-Hydro5 and ADGN-Hydro6. ADGN-peptide/mRNA complexes were filtered with 0.45 μm PES filter. In order to evaluate the stability of the ADGN/mRNA complexes in high serum and cell culture conditions, the complexes were incubated for 3 hrs in the presence of either 25% serum or heparan sulfate prior transfection, then 293T cells were transfected and Luciferase expression was monitored at 72 hrs.
ADGN-106 peptides containing YIGSR targeting sequence were evaluated for cellular delivery of Luciferase mRNA in 293T cells. A single dose of mRNA of 0.25 μg was evaluated. Luc mRNA (0.25 μg) in sterile water (GIBCO) were mixed with ADGN-106 and ADGN-106Hydro variant. ADGN-peptide/mRNA complexes were filtered with 0.45 μm PES filter. The ADGN-106/mRNA complexes were incubated for 3 hrs in the presence of 25% serum prior transfection, then 293T cells were transfected and Luciferase expression was monitored at 72 hrs.

mice or rat models = test: Summary of cargo delivery to targeted organ (Table 1); assay type: in vivo; conditions: cargoes and route (IV, IM, SQ, NB) per peptide as listed in Table 1
Description: Table 1 lists a summary of cell-penetrating peptides that have been proven successful in delivering various cargo molecules to on or more targeted organ (e.g., by intravenous (IV), intramuscular (IM), or subcutaneous (SQ) administration, or intratraccheal instillation or nebulization (NB)) in mice or rat models.

Substance | Targeted Organ (mice or rat models) | further results
Ac-YIGSR-(PEG)7-βALWRALWRLWRSLWRLLWKA-NH2 (Ac-YIGSR[PEG7′][βAla]LWRALWRLWRSLWRLLWKA-NH2) [ADGN-106-HYPEG7] | – | reduction of efficiency / luciferase expression by modification or linker vs unmodified ADGN peptide (293T cells): 72%
Ac-(PEG)2-βALWRALWRLWRSLWRLLWKA-NH2 ({Ac-PEG2′}-[βAla]LWRALWRLWRSLWRLLWKA-NH2) [ADGN-106-PEG2] | Lung/Kidney/; also recorded: Spleen | –
Ac-YIGSR-(PEG)2-βA-KWRSALWRWRLWRVRSWSR-NH2 (Ac-YIGSR[PEG2′][βAla]KWRSALWRWRLWRVRSWSR-NH2) [ADGN-100-HYPEG2] | Lung | –
Stearyl-βA-ALWRALWRLWRSLWRLLWKA-NH2 (Stearyl-[βAla]ALWRALWRLWRSLWRLLWKA-NH2) [ADGN-106 Stearyl] | Liver/Spleen | –
Ac-GYVS-Ava(CH2)2-ALWRALWRLWRSLWRLLWKA-NH2 [ADGN-106 hydro-4] | Brain/Kidney | –
Ac-YIGSR-(G)4-ALWRALWRLWRSLWRLLWKA-NH2 (Ac-YIGSRGGGGALWRALWRLWRSLWRLLWKA-NH2) [ADGN-106-Hydro-1] | – | luciferase expression (293T cells): high level of luciferase expression; reduction of efficiency / luciferase expression after serum treatment (293T cells): 40%
LSSRLDA-Ava-KWWERWWREWPRKRR (LSSRLDAKWWERWWREWPRKRR; Ava linker; VARIANT 7, 8 Linked by a 5-amino pentanoic acid) [VEPEP-3D] | Heart/Muscle | –
Ac-CKRAVRWWLRWASRWFSRWAWWR [VEPEP-9B] | Heart | –
ASSLNIA-Ava-KWWERWWREWPRKRR (ASSLNIAKWWERWWREWPRKRR; Ava linker; VARIANT 7, 8 Linked by a 5-amino pentanoic acid) [VEPEP-3C] | Muscle | –
Ac-YIGSR-Ahx-ALWRALWRLWRSLWRLLWKA-NH2 (Ac-YIGSR[Ahx]ALWRALWRLWRSLWRLLWKA-NH2; SMILES CC[C@H](C)[C@H](NC(=O)[C@H](Cc1ccc(O)cc1)NC(C)=O)C(=O)NCC(=O)N[C@@H](CO)C(=O)N[C@@H](CCCNC(=N)N)C(=O)NCCCCCC(=O)N[C@@H](C)C(=O)N[C@@H](CC(C)C)C(=O)N[C@@H](Cc1c[nH]c2ccccc12)C(=O)N[C@@H](CCCNC(=N)N)C(=O)N[C@@H](C)C(=O)N[C@@H](CC(C)C)C(=O)N[C@@H](Cc1c[nH]c2ccccc12)C(=O)N[C@@H](CCCNC(=N)N)C(=O)N[C@@H](CC(C)C)C(=O)N[C@@H](Cc1c[nH]c2ccccc12)C(=O)N[C@@H](CCCNC(=N)N)C(=O)N[C@@H](CO)C(=O)N[C@@H](CC(C)C)C(=O)N[C@@H](Cc1c[nH]c2ccccc12)C(=O)N[C@@H](CCCNC(=N)N)C(=O)N[C@@H](CC(C)C)C(=O)N[C@@H](CC(C)C)C(=O)N[C@@H](Cc1c[nH]c2ccccc12)C(=O)N[C@@H](CCCCN)C(=O)N[C@@H](C)C(N)=O) [ADGN-106 hydro-7] | Lung/Tumor | –
Ac-YIGSR-Balwralwrlwrslwrllwka-NH2 (Ac-YIGSR[βAla]LWRALWRLWRSLWRLLWKA-NH2) [ADGN-106-Hydro] | – | luciferase expression (293T cells): high level of luciferase expression; reduction of efficiency / luciferase expression after serum treatment (293T cells): 80%
Ac-YIGSR-(PEG)4-βA-KWRSALWRWRLWRVRSWSR-NH2 (Ac-YIGSR[PEG4′][βAla]KWRSALWRWRLWRVRSWSR-NH2) [ADGN-100-HYPEG4] | Lung | –
KSYDTY-ava-ALRWLRWASRWFSRWAWR (KSYDTY[Ava]ALRWLRWASRWFSRWAWR) [VEPEP-9A] | Brain/Lymphnode | –
Ac-YIGSR-(PEG)4-βALWRALWRLWRSLWRLLWKA-NH2 (Ac-YIGSR[PEG4′][βAla]LWRALWRLWRSLWRLLWKA-NH2) [ADGN-106-HYPEG4] | Tumor/Lung | reduction of efficiency / luciferase expression by modification or linker vs unmodified ADGN peptide (293T cells): 35%
beta-AKWFERWFREWPRKRR (N-terminal beta-alanine; VARIANT 1 beta-A) [VEPEP-3a] | Kidney/Pancreas | –
Ac-YIGSR-Ava(CH2)2-ALWRALWRLWRSLWRLLWKA-NH2 [ADGN-106-Hydro-3] | Tumor/Muscle | luciferase expression (293T cells): high level of luciferase expression; reduction of efficiency / luciferase expression after serum treatment (293T cells): 32%
Ac-YIGSR-Aun(CH2)6-ALWRALWRLWRSLWRLLWKA-NH2 [ADGN-106-Hydro-5] | Tumor/Lung/; also recorded: Pancreas/Liver | luciferase expression (293T cells): high level of luciferase expression; reduction of efficiency / luciferase expression after serum treatment (293T cells): 15%
Ac-YIGSR-(G)2-ALWRALWRLWRSLWRLLWKA-NH2 [ADGN-106-Hydro-7] | – | reduction of efficiency / luciferase expression by modification or linker vs unmodified ADGN peptide (293T cells): 28%
Ac-SYTSSTM-ava-KWWERWWREWPRKRR (SYTSSTMKWWERWWREWPRKRR; N-acetyl, Ava linker; VARIANT 1 N-terminal acetylation; VARIANT 7, 8 Linked by a 5-amino pentanoic acid) [VEPEP-3E] | Brain | –
Ac-YIGSR-(PEG)2-βALWRALWRLWRSLWRLLWKA-NH2 (Ac-YIGSR[PEG2′][βAla]LWRALWRLWRSLWRLLWKA-NH2) [ADGN-106-HYPEG2] | Tumor/Lung | luciferase expression (293T cells): high level of luciferase expression; reduction of efficiency / luciferase expression after serum treatment (293T cells): 21%
beta-ALRWWLRWASRWFSRWAWWR (N-terminal beta-alanine; VARIANT 1 beta-A) [VEPEP-9] | Brain/Liver/; also recorded: Lung/Kidney/ | –
beta-RWWLRWASRWFSRWAWR (not fully specified (residue 1, N-terminus); printed as beta-RWWLRWASRWFSRWAWR) [VEPEP-9C] | Liver/Lung/; also recorded: Kidney/Brain | –
KSYDTYAAETRRWASRWFSRWAWWR (not fully specified (N-terminus, C-terminus)) [VEPEP-9D] | Brain/Lymphnode | –
Ac-YIGSR-A-KWRSALWRWRLWRVRSWSR-NH2 (Ac-YIGSR[βAla]KWRSALWRWRLWRVRSWSR-NH2; SMILES CC[C@H](C)[C@H](NC(=O)[C@H](Cc1ccc(O)cc1)NC(C)=O)C(=O)NCC(=O)N[C@@H](CO)C(=O)N[C@@H](CCCNC(=N)N)C(=O)NCCC(=O)N[C@@H](CCCCN)C(=O)N[C@@H](Cc1c[nH]c2ccccc12)C(=O)N[C@@H](CCCNC(=N)N)C(=O)N[C@@H](CO)C(=O)N[C@@H](C)C(=O)N[C@@H](CC(C)C)C(=O)N[C@@H](Cc1c[nH]c2ccccc12)C(=O)N[C@@H](CCCNC(=N)N)C(=O)N[C@@H](Cc1c[nH]c2ccccc12)C(=O)N[C@@H](CCCNC(=N)N)C(=O)N[C@@H](CC(C)C)C(=O)N[C@@H](Cc1c[nH]c2ccccc12)C(=O)N[C@@H](CCCNC(=N)N)C(=O)N[C@H](C(=O)N[C@@H](CCCNC(=N)N)C(=O)N[C@@H](CO)C(=O)N[C@@H](Cc1c[nH]c2ccccc12)C(=O)N[C@@H](CO)C(=O)N[C@@H](CCCNC(=N)N)C(N)=O)C(C)C) [ADGN-100-Hydro] | Lung/Kidney | –
Ac-(PEG)2-βA-KWRSALWRWRLWRVRSWSR-NH2 ({Ac-PEG2′}-[βAla]KWRSALWRWRLWRVRSWSR-NH2) [ADGN-100-PEG2] | Lung:Liver/; also recorded: Spleen | –

— patent US12357695B2, “Peptides and nanoparticles for intracellular delivery of molecules” (AADIGEN, LLC, priority 2019, dated 2025)
